Results from PubChem BioAssay (NCI).
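Step 1: Grow cells in 96-well plates. Step 2: Expose to compound for 48 hours at 5 concentrations. Step 3: Interpolate endpoints linearly; if unreached, use highest concentration. At the GI50, growth is halved. TGI denotes the concentration required for complete inhibition of growth.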

Columns and labels:
Assay in all cases: growth of human tumour cells (NCI), 48 h
ACHN renal = test system: ACHN renal
IGROV1 ovarian = test system: IGROV1 ovarian
U251 CNS = test system: U251 CNS
K-562 leukemia = test system: K-562 leukemia
HT29 colon = test system: HT29 colon
NCI-H522 lung = test system: NCI-H522 lung
KM12 colon = test system: KM12 colon
T-47D breast = test system: T-47D breast
COLO 205 colon = test system: COLO 205 colon
SK-OV-3 ovarian = test system: SK-OV-3 ovarian
SF-268 CNS = test system: SF-268 CNS
MDA-MB-435 = test system: MDA-MB-435
MDA-MB-231 breast = test system: MDA-MB-231 breast
MALME-3M melanoma = test system: MALME-3M melanoma
SNB-19 CNS = test system: SNB-19 CNS
DU-145 prostate = test system: DU-145 prostate
HOP-92 NSCLC = test system: HOP-92 NSCLC
OVCAR-5 ovarian = test system: OVCAR-5 ovarian
OVCAR-8 ovarian = test system: OVCAR-8 ovarian
RPMI-8226 leukemia = test system: RPMI-8226 leukemia
OVCAR-4 ovarian = test system: OVCAR-4 ovarian
LOX IMVI melanoma = test system: LOX IMVI melanoma
CAKI-1 renal = test system: CAKI-1 renal
UACC-257 melanoma = test system: UACC-257 melanoma
SW-620 colon = test system: SW-620 colon
PC-3 prostate = test system: PC-3 prostate
UACC-62 melanoma = test system: UACC-62 melanoma
TK-10 renal = test system: TK-10 renal
MOLT-4 leukemia = test system: MOLT-4 leukemia
MCF7 breast = test system: MCF7 breast
NCI-H23 lung = test system: NCI-H23 lung
SK-MEL-5 melanoma = test system: SK-MEL-5 melanoma
SK-MEL-2 melanoma = test system: SK-MEL-2 melanoma
SK-MEL-28 melanoma = test system: SK-MEL-28 melanoma
786-0 renal = test system: 786-0 renal
RXF 393 renal = test system: RXF 393 renal
A549 NSCLC = test system: A549 NSCLC
M14 melanoma = test system: M14 melanoma
OVCAR-3 ovarian = test system: OVCAR-3 ovarian
SF-539 CNS = test system: SF-539 CNS
NCI-H226 lung = test system: NCI-H226 lung
SF-295 CNS = test system: SF-295 CNS
NCI/ADR-RES ovarian = test system: NCI/ADR-RES ovarian
HCT-116 colon = test system: HCT-116 colon
SN12C renal = test system: SN12C renal
SNB-75 CNS = test system: SNB-75 CNS
HS 578T breast = test system: HS 578T breast
EKVX NSCLC = test system: EKVX NSCLC
HL-60(TB) leukemia = test system: HL-60(TB) leukemia
HCT-15 colon = test system: HCT-15 colon
BT-549 breast = test system: BT-549 breast
SR leukemia = test system: SR leukemia
UO-31 renal = test system: UO-31 renal

## Cc1c2c(nn1-c1ccc(S(=O)(=O)NC(=S)Nc3ccccc3)cc1)-c1ccccc1CC2
ACHN renal
  GI50: > 50 µM
  TGI: > 50 µM
IGROV1 ovarian
  GI50: 20.6 µM
  TGI: > 50 µM
U251 CNS
  GI50: 39.6 µM
  TGI: > 50 µM
K-562 leukemia
  GI50: > 50 µM
  TGI: > 50 µM
HT29 colon
  GI50: > 50 µM
  TGI: > 50 µM
NCI-H522 lung
  GI50: 21.5 µM
  TGI: > 50 µM
KM12 colon
  GI50: 25.6 µM
  TGI: > 50 µM
T-47D breast
  GI50: > 50 µM
  TGI: > 50 µM
COLO 205 colon
  GI50: > 50 µM
  TGI: > 50 µM
SK-OV-3 ovarian
  GI50: > 50 µM
  TGI: > 50 µM
SF-268 CNS
  GI50: 18.7 µM
  TGI: > 50 µM
MDA-MB-435
  GI50: 14.4 µM
  TGI: > 50 µM
MDA-MB-231 breast
  GI50: > 50 µM
  TGI: > 50 µM
MALME-3M melanoma
  GI50: 1.15 µM
  TGI: > 50 µM
SNB-19 CNS
  GI50: > 50 µM
  TGI: > 50 µM
DU-145 prostate
  GI50: > 50 µM
  TGI: > 50 µM
HOP-92 NSCLC
  GI50: > 50 µM
  TGI: > 50 µM
OVCAR-5 ovarian
  GI50: > 50 µM
  TGI: > 50 µM
OVCAR-8 ovarian
  GI50: > 50 µM
  TGI: > 50 µM
RPMI-8226 leukemia
  GI50: 15.5 µM
  TGI: 42.4 µM
OVCAR-4 ovarian
  GI50: > 50 µM
  TGI: > 50 µM
LOX IMVI melanoma
  GI50: 25.8 µM
  TGI: > 50 µM
CAKI-1 renal
  GI50: 1.85 µM
  TGI: 36.2 µM
UACC-257 melanoma
  GI50: > 50 µM
  TGI: > 50 µM
SW-620 colon
  GI50: > 50 µM
  TGI: > 50 µM
PC-3 prostate
  GI50: 39.9 µM
  TGI: > 50 µM
UACC-62 melanoma
  GI50: > 50 µM
  TGI: > 50 µM
TK-10 renal
  GI50: 10 µM
  TGI: 46.9 µM
MOLT-4 leukemia
  GI50: > 50 µM
  TGI: > 50 µM
MCF7 breast
  GI50: 11.5 µM
  TGI: 34.3 µM
NCI-H23 lung
  GI50: 46.8 µM
  TGI: > 50 µM
SK-MEL-5 melanoma
  GI50: > 50 µM
  TGI: > 50 µM
SK-MEL-2 melanoma
  GI50: > 50 µM
  TGI: > 50 µM
SK-MEL-28 melanoma
  GI50: > 50 µM
  TGI: > 50 µM
786-0 renal
  GI50: 26.4 µM
  TGI: > 50 µM
RXF 393 renal
  GI50: > 50 µM
  TGI: > 50 µM
A549 NSCLC
  GI50: > 50 µM
  TGI: > 50 µM
M14 melanoma
  GI50: > 50 µM
  TGI: > 50 µM
OVCAR-3 ovarian
  GI50: 36.8 µM
  TGI: > 50 µM
SF-539 CNS
  GI50: > 50 µM
  TGI: > 50 µM
NCI-H226 lung
  GI50: > 50 µM
  TGI: > 50 µM
SF-295 CNS
  GI50: > 50 µM
  TGI: > 50 µM
NCI/ADR-RES ovarian
  GI50: > 50 µM
  TGI: > 50 µM
HCT-116 colon
  GI50: 18.2 µM
  TGI: > 50 µM
SN12C renal
  GI50: > 50 µM
  TGI: > 50 µM
SNB-75 CNS
  GI50: > 50 µM
  TGI: > 50 µM
HS 578T breast
  GI50: 44.6 µM
  TGI: > 50 µM
EKVX NSCLC
  GI50: > 50 µM
  TGI: > 50 µM
HL-60(TB) leukemia
  GI50: > 50 µM
  TGI: > 50 µM
HCT-15 colon
  GI50: 38.8 µM
  TGI: > 50 µM
BT-549 breast
  GI50: > 50 µM
  TGI: > 50 µM
SR leukemia
  GI50: > 50 µM
  TGI: > 50 µM
UO-31 renal
  GI50: > 50 µM
  TGI: > 50 µM
